Experimental data reported in patent publication US20060079453A1, “Hla binding peptides and their uses” (priority 2002, published 2006).
Read-outs that look alike come from different tables or passages of the source. No end group written: not given here.

How the values were obtained:
Experiment in all cases: biochemical
Format in all cases: binding
[1] = target: HLA-DR DRB3*0101 (DR52) (Homo sapiens, UniProt P01903+P79483)
[2] = target: HLA-DR DRB1*0301 (DR3) (Homo sapiens, UniProt P01903+P01911, A100K/A102G/A103R/A169T/F55Y/I96L/K41T/L162R/M171V/P40S/Q125H/Q178H/Q39Y/R42S/S66N/T106N/T262R/W38E/Y61H)
[3] = target: HLA-DR DRB1*0901 (DR9) (Homo sapiens, UniProt P01903+P01911, A100R/A103E/D57H/D86V/F55Y/F60I/F76Y/I96F/K127E/L162R/M171V/P40D/Q125H/Q99R/R33Q/R42F/S133A/S66N/T210M/V115G/W38K/Y107V/Y59G/Y89S); details: DRB1 *0901
[4] = target: HLA-DR DRB1*0802 (DR8) (Homo sapiens, UniProt P01903+P01911, A100R/A103L/A169T/F76Y/H45Y/I96F/K41T/L162R/M171V/P40S/Q125H/Q178H/Q39Y/Q99D/R218S/R42G/S66Y/V115G/W38E)
[5] = target: HLA-DR DRB1*1501 (DR15) (Homo sapiens, UniProt P01903+P01911); details: DRBI *1501
[6] = target: HLA-DR DRB1*0405 (DR4) (Homo sapiens, UniProt P01903+P01911, A100R/A169T/D86S/F76Y/I96L/K127E/L162R/M171V/N62H/P40V/Q125Y/R42H/S133A/S149N/S66Y/V115G/V209L/W38E); details: DRB1 *0405
[7] = target: HLA-DR DRB1*1302 (DR13) (Homo sapiens, UniProt P01903+P01911, A100E/A169T/K41T/L162R/M171V/P40S/Q125H/Q178H/Q39Y/Q99D/R42S/S66N/T262R/V115G/W38E/Y61H); details: DRBI *1302
[8] = target: HLA-DR DRB5*0101 (DR51) (Homo sapiens, UniProt P01903+Q30154); details: DRB5 *0101
[9] = target: HLA-B*4403 (Homo sapiens, UniProt P01889, A223V/A65T/A93T/A95T/D201E/D98Y/E176V/E187L/E204Q/E69K/G107R/H137Y/K202T/L105A/L119I/N104T/N87E/Q56L/Q94N/R106L/R155S/R180L/S101N/S121R/S35A/S48T/T118I/V36M/W191S/Y140D/Y91S)
[10] = target: HLA-DR DRB1*1101 (DR11) (Homo sapiens, UniProt P01903+P01911, A100R/A169T/A87E/I96F/K41T/L162R/M171V/P40S/Q125H/Q178H/Q39Y/Q99D/R42S/S66Y/T262R/V115G/W38E); details: DRB1 *1101
[11] = target: HLA-DR DRB1*0101 (DR1) (Homo sapiens, UniProt P01903+P01911, A100R/D57E/F55L/F60I/F76Y/I96L/L162R/M171V/P40L/Q125E/R42F/V115G/Y59C); details: DRB1 *0101
[12] = target: HLA-DR DRB1*0401 (DR4) (Homo sapiens, UniProt P01903+P01911, A100K/A169T/F76Y/I96L/K127E/L162R/M171V/N62H/P40V/Q125Y/R42H/S133A/S149N/S66Y/V115G/V209L/W38E); details: DRB1 *0401
[13] = target: HLA-DR DRB1*0701 (DR7) (Homo sapiens, UniProt P01903+P01911, A100R/A102G/A103Q/D57E/D86V/E43K/F76Y/K127E/L162R/M171V/P40G/Q125H/Q99D/R33Q/R42Y/R54Q/S133A/S66F/T210M/V115G/Y107V/Y59L/Y89S); details: DRB1 *0701
[14] = target: HLA-B*1801 (Homo sapiens, UniProt P01889, A329T/A93T/A95T/C349S/D201E/D54G/D98Y/E176V/E187T/E204Q/E69T/K202T/Q94N/R155S/R180L/S121R/V306I/Y140S/Y195H/Y33H/Y91S)
[15] = target: HLA-B*4402 (Homo sapiens, UniProt P01889, A223V/A65T/A93T/A95T/D201E/D98Y/E176V/E187L/E204Q/E69K/G107R/H137Y/K202T/L105A/L119I/N104T/N87E/Q56L/Q94N/R106L/R155S/R180D/S101N/S121R/S35A/S48T/T118I/V36M/W191S/Y140D/Y91S)
[16] = target: HLA-B*4001 (Homo sapiens, UniProt P01889, A65T/A93T/A95T/D138N/D98Y/E176V/E69K/N87E/Q56L/Q94N/R180L/S121R/S35A/S48T/T167S/V36M/W171L/Y33H/Y91S)
[17] = target: HLA-B*4002 (Homo sapiens, UniProt P01889, A65T/A93T/A95T/D138N/D201E/D98Y/E176V/E204Q/E69K/K202T/N87E/Q56L/Q94N/R180L/S48T/Y33H/Y91S)
[18] = target: HLA-B*4501 (Homo sapiens, UniProt P01889, A329T/A65T/A93T/A95T/C349S/D138N/D201E/D98Y/E176V/E187L/E204Q/E69K/H137Y/K202T/L119W/N87E/Q56L/Q94N/R155S/R180D/S121R/S35A/S48T/V127L/V306I/V36M/W191S/Y140L/Y33H/Y91S)

Sequence of HLA-DR DRB1*1101 (DR11) (P01903 26-254 limits assumed, other chains not shown): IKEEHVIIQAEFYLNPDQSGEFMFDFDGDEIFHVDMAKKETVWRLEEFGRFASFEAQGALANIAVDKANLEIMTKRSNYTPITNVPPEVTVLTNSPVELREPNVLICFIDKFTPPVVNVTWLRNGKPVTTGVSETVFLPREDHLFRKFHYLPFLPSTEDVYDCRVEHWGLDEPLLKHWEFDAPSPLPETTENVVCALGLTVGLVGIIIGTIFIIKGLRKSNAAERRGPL
Sequence of HLA-DR DRB1*1302 (DR13) (P01903 26-254 limits assumed, other chains not shown): as above
Sequence of HLA-DR DRB1*0301 (DR3) (P01903 26-254 limits assumed, other chains not shown): as above

Sequence | IC50 ([9]; B*4403) [nM] | IC50 ([14]; B*1801) [nM] | IC50 ([16]; B*4001) [nM] | IC50 [9] [nM] | IC50 [15] [nM] | IC50 [16] [nM] | IC50 [14] [nM] | IC50 [17] [nM] | also measured
LWQLNGRLEYTLKDR | 0.11 | – | – | – | – | – | – | – | IC50 [1]: 4400 nM; IC50 [2]: 511 nM; IC50 [3]: 16600 nM; IC50 [4]: 43300 nM; IC50 [5]: 853 nM; IC50 [6]: 94 nM; IC50 [7]: 2450 nM; IC50 [8]: 6000 nM; IC50 [10]: 6520 nM; IC50 [11]: 698 nM; IC50 [12]: 757 nM; IC50 [13]: 20200 nM
SEAIHTFQY | 16 | 25 | 2900 | – | – | – | – | – | IC50 ([15]; B*4402): 18 nM; IC50 ([17]; B*4002): 1800 nM
AENLWTTVY | – | – | – | 50 | 51 | 246 | – | – | –
AENLWLTVY | – | – | – | 226 | 647 | 1700 | 666 | 884 | –
AEPLWVTVY | – | – | – | 96 | – | 1730 | 310 | 2480 | –
ADLMGYIPL | – | > 7620 | 959 | – | – | – | – | – | IC50 ([18]; B*4501): > 49000 nM; IC50 ([15]; B*4402): > 21400 nM; IC50 ([17]; B*4002): 4.7 nM
AENPWVTVY | – | – | – | 53 | 18 | – | 27 | 224 | –
YEDLRVLSF | – | – | – | – | 24 | 67 | 20 | 71 | IC50 [18]: 18700 nM
AENLVVTVY | – | – | – | 203 | – | 876 | 62 | 1340 | IC50 [18]: 718 nM
AENLWVTVL | – | – | – | 208 | 68 | 14 | 6200 | 13 | –
AEMGKFKYSF | 31 | 155 | – | – | – | – | – | – | IC50 ([15]; B*4402): 18 nM; IC50 ([17]; B*4002): 3.8 nM
KEKGGLDGL | > 10500 | > 22800 | 55 | – | – | – | – | – | IC50 ([18]; B*4501): 9930 nM; IC50 ([15]; B*4402): > 81400 nM
AEVLWVTVY | – | – | – | 390 | 1520 | 1550 | – | 436 | –
AEIPTRVNY | 23 | 1690 | 7830 | – | – | – | – | – | IC50 ([17]; B*4002): 5440 nM
AENLWVTVR | – | – | – | 1470 | – | – | 33000 | 1740 | IC50 [18]: 233 nM
AENTWVTVY | – | – | – | 166 | 386 | 1450 | 213 | – | IC50 [18]: 442 nM
TEPAAVGVGAV | 459 | > 8120 | 930 | – | – | – | – | – | IC50 ([18]; B*4501): 8240 nM
QEILDLWVY | – | 52 | 740 | – | – | – | – | – | IC50 ([18]; B*4501): 6260 nM; IC50 ([15]; B*4402): 264 nM; IC50 ([17]; B*4002): 4520 nM
AENLWFTVY | – | – | – | 62 | – | 699 | 360 | 668 | IC50 [18]: 90 nM
